Assay results: US7767659B2, “Synthesis of naturally occurring ecteinascidins and related compounds” (Pharma Mar, S.A., priority 2002, dated 2010)
Like-named read-outs stand apart in the source and are kept apart here.

What was measured:
LoVo = experiment: cells
Summary of the method: (§1)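 Colorimetric SRB read (490 nm) on triplicate wells after 48 h at 37 °C, 5% CO2. Dose range 10 to 10^−8 μg/ml; 5×10^3 cells/well pre-attached 18 h.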

HT-29 = experiment: cells; conditions: for GI50: read-out: GI50 HT29
Summary of the method: as §1

A-549 = experiment: cells; conditions: for GI50: read-out: GI50 A549; for CC50: read-out: LC50 A549
Summary of the method: as §1

IGROV-1 = experiment: Inhibition of cells growth by colorimetric assay (SRB)
Summary of the method: as §1

LoVo-Dox = experiment: as above
Summary of the method: as §1

IGROV-ET = experiment: as above
Summary of the method: as §1

PANC-1 = experiment: as above
Summary of the method: as §1

HeLa-APL = experiment: as above
Summary of the method: as §1

SK-MEL-28 = experiment: as above; conditions: for GI50: read-out: GI50 MEL-28; for CC50: read-out: LC50 MEL-28
Summary of the method: as §1

DU-145 = experiment: as above; conditions: for GI50: read-out: GI50 DU145
Summary of the method: as §1

K-562 = experiment: as above
Summary of the method: as §1

LNCaP = experiment: as above; conditions: for GI50: read-out: GI50 LNCAP; for CC50: read-out: LC50 LNCAP
Summary of the method: as §1

HeLa = experiment: as above
Summary of the method: as §1

SK-BR-3 = experiment: as above
Summary of the method: as §1

COc1c(C)cc2c(c1O)C1C3C4SCC(NC(C)=O)C(=O)OCC(c5c6c(c(C)c(OC(C)=O)c54)OCO6)N3C(C#N)C(C2)N1C(C)=O (centres unmarked) [compound 35]
LOVO TGI (LoVo; SRB assay, 48 hours exposure, LOVO, total growth inhibition): 2.14E−06 Molar | GI50 (LoVo; read-out: LOVO GI50, SRB assay, 48 hours exposure, LOVO): 564 nM | CC50 (LoVo; read-out: LOVO LC50, SRB assay, 48 hours exposure, LOVO, cell killing): 14400 nM | TGI HT29 (HT-29; HT29, SRB, 48 hours exposure): 8.18E−06 Molar | GI50 (HT-29; HT29, SRB, 48 hours exposure): 602 nM | CC50 (HT-29; read-out: LC50 HT29, HT29, SRB, 48 hours exposure): 14400 nM | TGI A549 (A-549; A549, SRB, 48 hours exposure): 5.96E−06 Molar | GI50 (A-549; A549, SRB, 48 hours exposure): 2930 nM | CC50 (A-549; A549, SRB, 48 hours exposure): 12100 nM | IGROV TGI (IGROV-1; SRB assay, 48 hours exposure, IGROV, total growth inhibition): 1.69E−06 Molar | GI50 (IGROV-1; read-out: IGROV GI50, SRB assay, 48 hours exposure, IGROV): 420 nM | CC50 (IGROV-1; read-out: IGROV LC50, SRB assay, 48 hours exposure, IGROV, cell killing): 8630 nM | LOVO-DOX TGI (LoVo-Dox; SRB assay, 48 hours exposure, LOVO-DOX, total growth inhibition): 1.44E−05 Molar | GI50 (LoVo-Dox; read-out: LOVO-DOX GI50, SRB assay, 48 hours exposure, LOVO-DOX): 5750 nM | CC50 (LoVo-Dox; read-out: LOVO-DOX LC50, SRB assay, 48 hours exposure, LOVO-DOX, cell killing): 14400 nM | IGROV-ET TGI (IGROV-ET; SRB assay, 48 hours exposure, IGROV-ET, total growth inhibition): 6.35E−06 Molar | GI50 (IGROV-ET; read-out: IGROV-ET GI50, SRB assay, 48 hours exposure, IGROV-ET): 2300 nM | CC50 (IGROV-ET; read-out: IGROV-ET LC50, SRB assay, 48 hours exposure, IGROV-ET, cell killing): 14400 nM | PANC-1 TGI (PANC-1; SRB assay, 48 hours exposure, PANC-1, total growth inhibition): 1.41E−06 Molar | GI50 (PANC-1; read-out: PANC-1 GI50, SRB assay, 48 hours exposure, PANC-1): 471 nM | CC50 (PANC-1; read-out: PANC-1 LC50, SRB assay, 48 hours exposure, PANC-1, cell killing): 14400 nM | HELA-APL TGI (HeLa-APL; SRB assay, 48 hours exposure, HELA-APL, total growth inhibition): 1.09E−06 Molar | GI50 (HeLa-APL; read-out: HELA-APL GI50, SRB assay, 48 hours exposure, HELA-APL): 458 nM | CC50 (HeLa-APL; read-out: HELA-APL LC50, SRB assay, 48 hours exposure, HELA-APL, cell killing): 5920 nM | TGI MEL-28 (SK-MEL-28; MEL-28, SRB, 48 hours exposure): 8.63E−07 Molar | GI50 (SK-MEL-28; MEL-28, SRB, 48 hours exposure): 390 nM | CC50 (SK-MEL-28; MEL-28, SRB, 48 hours exposure): 3190 nM | TGI DU145 (DU-145; DU145, SRB, 48 hours exposure): 1.20E−06 Molar | GI50 (DU-145; DU145, SRB, 48 hours exposure): 570 nM | CC50 (DU-145; read-out: LC50 DU145, DU145, SRB, 48 hours exposure): 10300 nM | K562 TGI (K-562; SRB assay, 48 hours exposure, K562, total growth inhibition): 1.13E−06 Molar | GI50 (K-562; read-out: K562 GI50, SRB assay, 48 hours exposure, K562): 193 nM | CC50 (K-562; read-out: K562 LC50, SRB assay, 48 hours exposure, K562, cell killing): 9770 nM | TGI LNCAP (LNCaP; LNCAP, SRB, 48 hours exposure): 3.97E−07 Molar | GI50 (LNCaP; LNCAP, SRB, 48 hours exposure): 189 nM | CC50 (LNCaP; LNCAP, SRB, 48 hours exposure): 834 nM | HELA TGI (HeLa; SRB assay, 48 hours exposure, HELA, total growth inhibition): 8.37E−07 Molar | GI50 (HeLa; read-out: HELA GI50, SRB assay, 48 hours exposure, HELA): 396 nM | CC50 (HeLa; read-out: HELA LC50, SRB assay, 48 hours exposure, HELA, cell killing): 3390 nM | SK-BR3 TGI (SK-BR-3; SRB assay, 48 hours exposure, SK-BR3, total growth inhibition): 1.10E−06 Molar | GI50 (SK-BR-3; read-out: SK-BR3 GI50, SRB assay, 48 hours exposure, SK-BR3): 396 nM | CC50 (SK-BR-3; read-out: SK-BR3 LC50, SRB assay, 48 hours exposure, SK-BR3, cell killing): 9350 nM

C=CCN1[C@@H]2c3c(cc(C)c(OC)c3O)C[C@H]1[C@H](C#N)N1C2[C@@H]2SC[C@H](NC(=O)c3cc4ccccc4oc3=O)C(=O)OC[C@H]1c1c3c(c(C)c(OC(C)=O)c12)OCO3 (some centres unmarked) [compound 28]
GI50 (LoVo; Homo sapiens, LoVo, 48 h, read-out: GI50 LOVO): 66.3 nM | CC50 (LoVo; Homo sapiens, LoVo, 48 h, read-out: LC50 LOVO): 687 nM | IC (TGI) (LoVo; Homo sapiens, LoVo, 48 h, read-out: TGI LOVO): 212 nM | GI50 (HT-29; Homo sapiens, HT-29, 48 h): 76.5 nM | IC (TGI) (HT-29; Homo sapiens, HT-29, 48 h, read-out: TGI HT29): 2050 nM | GI50 (A-549; Homo sapiens, A549, 48 h): 52.5 nM | CC50 (A-549; Homo sapiens, A549, 48 h): 2270 nM | IC (TGI) (A-549; Homo sapiens, A549, 48 h, read-out: TGI A549): 163 nM | GI50 (IGROV-1; Homo sapiens, IGROV-1, 48 h, read-out: GI50 IGROV): 49 nM | CC50 (IGROV-1; Homo sapiens, IGROV-1, 48 h, read-out: LC50 IGROV): 1570 nM | IC (TGI) (IGROV-1; Homo sapiens, IGROV-1, 48 h, read-out: TGI IGROV): 155 nM | GI50 (LoVo-Dox; Homo sapiens, 48 h, read-out: GI50 LOVO-DOX): 362 nM | IC (TGI) (LoVo-Dox; Homo sapiens, 48 h, read-out: TGI LOVO-DOX): 1220 nM | GI50 (IGROV-ET; Homo sapiens, 48 h, read-out: GI50 IGROV-ET): 138 nM | CC50 (IGROV-ET; Homo sapiens, 48 h, read-out: LC50 IGROV-ET): 898 nM | IC (TGI) (IGROV-ET; Homo sapiens, 48 h, read-out: TGI IGROV-ET): 352 nM | GI50 (PANC-1; Homo sapiens, PANC-1, 48 h, read-out: GI50 PANC-1): 59.2 nM | IC (TGI) (PANC-1; Homo sapiens, PANC-1, 48 h, read-out: TGI PANC-1): 197 nM | GI50 (HeLa-APL; Homo sapiens, 48 h, read-out: GI50 HELA-APL): 55.9 nM | CC50 (HeLa-APL; Homo sapiens, 48 h, read-out: LC50 HELA-APL): 682 nM | IC (TGI) (HeLa-APL; Homo sapiens, 48 h, read-out: TGI HELA-APL): 130 nM | GI50 (SK-MEL-28; Homo sapiens, SK-MEL-28, 48 h): 56.8 nM | CC50 (SK-MEL-28; Homo sapiens, SK-MEL-28, 48 h): 692 nM | IC (TGI) (SK-MEL-28; Homo sapiens, SK-MEL-28, 48 h, read-out: TGI MEL-28): 135 nM | GI50 (DU-145; Homo sapiens, DU-145, 48 h): 35.8 nM | IC (TGI) (DU-145; Homo sapiens, DU-145, 48 h, read-out: TGI DU145): 1270 nM | GI50 (K-562; Homo sapiens, K562, 48 h, read-out: GI50 K562): 28.3 nM | CC50 (K-562; Homo sapiens, K562, 48 h, read-out: LC50 K562): 2690 nM | IC (TGI) (K-562; Homo sapiens, K562, 48 h, read-out: TGI K562): 135 nM | GI50 (LNCaP; Homo sapiens, LNCaP, 48 h): 22.9 nM | CC50 (LNCaP; Homo sapiens, LNCaP, 48 h): 111 nM | IC (TGI) (LNCaP; Homo sapiens, LNCaP, 48 h, read-out: TGI LNCAP): 50.4 nM | GI50 (HeLa; Homo sapiens, HeLa, 48 h, read-out: GI50 HELA): 38.6 nM | CC50 (HeLa; Homo sapiens, HeLa, 48 h, read-out: LC50 HELA): 289 nM | IC (TGI) (HeLa; Homo sapiens, HeLa, 48 h, read-out: TGI HELA): 75.5 nM | GI50 (SK-BR-3; Homo sapiens, SK-BR-3, 48 h, read-out: GI50 SK-BR3): 47.3 nM | CC50 (SK-BR-3; Homo sapiens, SK-BR-3, 48 h, read-out: LC50 SK-BR3): 1220 nM | IC (TGI) (SK-BR-3; Homo sapiens, SK-BR-3, 48 h, read-out: TGI SK-BR3): 164 nM
